27 compounds from US20070259879A1, “Piperazine and piperidine biaryl derivatives” (priority 2006, published 2007) can be followed below.

Molecules are shown by their SMILES. pIC50: −log10 of the molar value.

For this assay, the system named is HIV-1 pseudotyped virus. The assay is described as follows: HIV-1 pseudotyped virus assay (luciferase reporter gene, single cycle of infection). Particulars: Human immunodeficiency virus 1, CCR5, 72 h, read-out: Activity (antiviral activity, IC50). The format is cell-based. The text has this: In this example are illustrated experimental procedures for determining biological activity, such as antiviral activity. For determining biological activity, an HIV-1 infection assay was used to determine the antiviral potency for compounds of the present invention.
For determining biological activity, an HIV-1 pseudotyped virus assay was used to determine the respective antiviral potencies of each compound tested in the assay for comparison. The pseudotyped assay scores for a reduction in infection as indicated by decreased signal from the reporter gene encoding a luciferase enzyme (“reporter gene”). The assay employs cell lines expressing CD4 and either of the primary chemokine receptors (CCR5 or CXCR4) that HIV uses as a co-receptor (“target cells”). Pseudotyped virus was prepared by co-transfection of 293T cells with: 1) a plasmid construct carrying the HIV-1 envelope of choice, in combination with 2) a pseudotyped virus backbone construct in which (a) envelope expression has been abrogated due to a frameshift in the envelope sequence, and (b) the reporter gene replaces nef. Expression of HIV-1 envelope on 293T packaging cells results in the production of a pseudotyped virus carrying the reporter gene that is capable of a single cycle of infection.
The compounds of the present invention being tested for antiviral activity were serially diluted and dose responses determined in duplicate in two separate experiments. The compounds to be tested were added directly to the plated, target cells, followed by the addition of pseudotyped virus described above. The cells were cultured for three days prior harvest. Media and compound were removed, the cell monolayer was washed, lysed by detergent, and then frozen at −80 degrees C. for a minimum of 30 minutes. Following thawing and acclimation to room temperature, luciferase production was quatified by injecting 100 […]I of a substrate (of the enzyme encoded by the reporter gene) into each well followed by detecting the signal (light emitted from the interaction between the enzyme and substrate) after 5 seconds. In the pseudotyped assay, a 50% reduction in signal is significant, and provides the primary cutoff value for assessing antiviral activity (“IC50” is defined as the dilution resulting in a 50% reduction in enzymatic activity as interpolated from a titration curve). Representative compounds according to the present invention, and their antiviral activity, are illustrated in Table 3.
On the technique in general: In a reporter assay the amount or activity of a reporter protein is the signal.

Take `C[C@@H]1CN(C(=O)c2ccccc2)CCN1S(=O)(=O)c1ccc(-n2cccn2)cc1` [Example 133, [(R)-3-methyl-4-(4-pyrazole-1-yl-benzenesulfonyl)-piperazin-1-yl]-phenyl-methanone]: the negative logarithm of the IC50 (pIC50) (as a rule, −log10 of the IC50, conventionally taken in molar units) was less than 5.30.

As to `C[C@@H]1CN(C(=O)c2ccccc2)CCN1S(=O)(=O)c1ccc(-c2csnn2)cc1` [Example 134, [(R)-3-methyl-4-(4-[1,2,3]thiadiazol-4-yl-benzenesulfonyl)-piperazin-1-yl]-phenyl-methanone], the negative-log IC50 (pIC50) was less than 5.30.

As for `CC1CN(C(=O)c2ccccc2)CCN1S(=O)(=O)c1ccc(-c2ccc3ccccc3n2)s1` (stereo not drawn) [Example 135, (3-methyl-4-(5-(quinolin-2-yl)thiophen-2-ylsulfonyl)piperazin-1-yl)(phenyl)methanone], the pIC50 was less than 5.30.

As to `Cc1ccc(C#N)c(-c2ccc(S(=O)(=O)N3CCN(C(=O)c4ccccc4)CC3C)s2)n1` (stereo not drawn) [Example 136, 2-(5-(4-benzoyl-2-methylpiperazin-1-ylsulfonyl)thiophen-2-yl)-6-methylnicotinonitrile], the pIC50 is less than 5.30.

Regarding `Cc1cccc(-c2ccc(S(=O)(=O)N3CCN(C(=O)c4ccccc4)CC3C)s2)n1` (stereo not drawn) [Example 137, (3-methyl-4-(5-(6-methylpyridin-2-yl)thiophen-2-ylsulfonyl)piperazin-1-yl)(phenyl)methanone], the negative-log IC50 (pIC50) is less than 5.30.

Consider `Cc1ccnc(-c2ccc(S(=O)(=O)N3CCN(C(=O)c4ccccc4)CC3C)s2)c1` (stereo not drawn) [Example 138, (3-methyl-4-(5-(4-methylpyridin-2-yl)thiophen-2-ylsulfonyl)piperazin-1-yl)(phenyl)methanone], for which the negative logarithm of the IC50 (pIC50) is less than 5.30.

With `Cc1cccnc1-c1ccc(S(=O)(=O)N2CCN(C(=O)c3ccccc3)CC2C)s1` (stereo not drawn) [Example 139, (3-methyl-4-(5-(3-methylpyridin-2-yl)thiophen-2-ylsulfonyl)piperazin-1-yl)(phenyl)methanone], the pIC50 was less than 5.30.

Consider `CC1CN(C(=O)c2ccccc2)CCN1S(=O)(=O)c1ccc(-c2ncccn2)s1` (stereo not drawn) [Example 141, (3-methyl-4-(5-(pyrimidin-2-yl)thiophen-2-ylsulfonyl)piperazin-1-yl)(phenyl)methanone], for which the negative logarithm of the IC50 (pIC50) was greater than 5.30.

For `CC1CN(C(=O)c2ccccc2)CCN1S(=O)(=O)c1ccc(-c2cccs2)s1` (stereo not drawn) [Example 142, (4-(2,2′-bithiophen-5-ylsulfonyl)-3-methylpiperazin-1-yl)(phenyl)methanone], the pIC50 is greater than 5.30.

`CC1CN(C(=O)c2ccccc2)CCN1S(=O)(=O)c1ccc(-c2ccc(-c3ccon3)s2)s1` (stereo not drawn) [Example 143, (4-(5′-(isoxazol-3-yl)-2,2′-bithiophen-5-ylsulfonyl)-3-methylpiperazin-1-yl)(phenyl)methanone]: the pIC50 is less than 5.30.

Regarding `CC1CN(C(=O)c2ccccc2)CCN1S(=O)(=O)c1ccc(-c2ccc(-c3ccno3)s2)s1` (stereo not drawn) [Example 144, (4-(5′-(isoxazol-5-yl)-2,2′-bithiophen-5-ylsulfonyl)-3-methylpiperazin-1-yl)(phenyl)methanone], the negative-log IC50 (pIC50) is greater than 5.30.

Consider `CC1CN(C(=O)c2ccccc2)CCN1S(=O)(=O)c1ccc(-c2ccccc2)s1` (stereo not drawn) [Example 145, (3-methyl-4-(5-phenylthiophen-2-ylsulfonyl)piperazin-1-yl)(phenyl)methanone], for which the negative-log IC50 (pIC50) is less than 5.30.

On to `Cc1ccc(-c2ccc(S(=O)(=O)N3CCN(C(=O)c4ccccc4)CC3C)s2)nn1` (stereo not drawn) [Example 146, (3-methyl-4-(5-(6-methylpyridazin-3-yl)thiophen-2-ylsulfonyl)piperazin-1-yl)(phenyl)methanone], for which the pIC50 was less than 5.30.

For `CC1CN(C(=O)c2ccccc2)CCN1S(=O)(=O)c1ccc(-c2ccc(C#N)cn2)s1` (stereo not drawn) [Example 147], the negative-log IC50 (pIC50) is greater than 5.30.

`CC1CN(C(=O)c2ccccc2)CCN1S(=O)(=O)c1ccc(-c2ccncn2)s1` (stereo not drawn) [Example 148, (3-methyl-4-(5-(pyrimidin-4-yl)thiophen-2-ylsulfonyl)piperazin-1-yl)(phenyl)methanone]: the pIC50 was less than 5.30.

Regarding `CC1CN(C(=O)c2ccccc2)CCN1S(=O)(=O)c1ccc(-c2cccnc2)s1` (stereo not drawn) [Example 150, (3-methyl-4-(5-(pyridin-3-yl)thiophen-2-ylsulfonyl)piperazin-1-yl)(phenyl)methanone], the pIC50 was less than 5.30.

For the compound `CC1CN(C(=O)c2ccccc2)CCN1S(=O)(=O)c1ccc(-c2ncnc3ccsc23)s1` (stereo not drawn) [Example 151, (3-methyl-4-(5-(thieno[3,2-d]pyrimidin-4-yl)thiophen-2-ylsulfonyl)piperazin-1-yl)(phenyl)methanone], the pIC50 was less than 5.30.

For `CC1CN(C(=O)c2ccccc2)CCN1S(=O)(=O)c1ccc(-c2cc(-n3ccnc3)ncn2)s1` (stereo not drawn) [Example 152, (4-(5-(6-(1H-imidazol-1-yl)pyrimidin-4-yl)thiophen-2-ylsulfonyl)-3-methylpiperazin-1-yl)(phenyl)methanone], the pIC50 was less than 5.30.

For `CC1CN(C(=O)c2ccccc2)CCN1S(=O)(=O)c1ccc(-c2ccncc2)s1` (stereo not drawn) [Example 153, (3-methyl-4-(5-(pyridin-4-yl)thiophen-2-ylsulfonyl)piperazin-1-yl)(phenyl)methanone], the pIC50 is less than 5.30.

Regarding `CC1CN(C(=O)c2ccccc2)CCN1S(=O)(=O)c1ccc(-c2nncc3ccccc23)s1` (stereo not drawn) [Example 154, (3-methyl-4-(5-(phthalazin-1-yl)thiophen-2-ylsulfonyl)piperazin-1-yl)(phenyl)methanone], the pIC50 is less than 5.30.

Regarding `CC(=O)c1cccc(-c2ccc(S(=O)(=O)N3CCN(C(=O)c4ccccc4)CC3C)s2)n1` (stereo not drawn) [Example 155, 1-(6-(5-(4-benzoyl-2-methylpiperazin-1-ylsulfonyl)thiophen-2-yl)pyridin-2-yl)ethanone], the negative logarithm of the IC50 (pIC50) is less than 5.30.

With `CC1CN(C(=O)c2ccccc2)CCN1S(=O)(=O)c1ccc(-c2ccc(-c3ccccc3)nn2)s1` (stereo not drawn) [Example 156, (3-methyl-4-(5-(6-phenylpyridazin-3-yl)thiophen-2-ylsulfonyl)piperazin-1-yl)(phenyl)methanone], the pIC50 is less than 5.30.

For `CC1CN(C(=O)c2ccccc2)CCN1S(=O)(=O)c1ccc(-c2ncccc2C(F)(F)F)s1` (stereo not drawn) [Example 157, (3-methyl-4-(5-(3-(trifluoro-methyl)pyridin-2-yl)thiophen-2-ylsulfonyl)piperazin-1-yl)(phenyl)methanone], the negative logarithm of the IC50 (pIC50) is less than 5.30.

`Cc1nc2cc(-c3ccc(S(=O)(=O)N4CCN(C(=O)c5ccccc5)CC4C)s3)ccc2s1` (stereo not drawn) [Example 158, (3-methyl-4-(5-(2-methylbenzo[d]thiazol-5-yl)thiophen-2-ylsulfonyl)piperazin-1-yl)(phenyl)methanone]: the pIC50 is less than 5.30.

As for `C[C@@H]1CN(C(=O)c2ccccc2)CCN1S(=O)(=O)c1ccc(-c2csnn2)s1` [Example 165, [(R)-3-Methyl-4-(5-[1,2,3]thiadiazol-4-yl-thiophene-2-sulfonyl)-piperazin-1-yl]-phenyl-methanone], the pIC50 was less than 5.30.

As to `CC1CN(C(=O)c2ccccc2)CCN1S(=O)(=O)c1ccc(-c2cnco2)cc1` (stereo not drawn) [Example 166, [3-Methyl-4-(4-oxazol-5-yl-benzenesulfonyl)-piperazin-1-yl]-phenyl methanone], the negative logarithm of the IC50 (pIC50) was less than 5.30.

Consider `C[C@@H]1CN(C(=O)c2ccccc2)CCN1S(=O)(=O)c1ccc(-c2cc(C(F)(F)F)on2)s1` [Example 167, [(R)-3-Methyl-4-(5-[(5-trifluoromethyl)-isoxazol-3-yl]-thiophene-2-sulfonyl)-piperazin-1-yl]-phenyl-methanone], for which the negative-log IC50 (pIC50) is less than 5.30.
